From ChEMBL document CHEMBL1201862, “PubChem BioAssay data set” (2004)
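Cells were grown in 96-well plates and exposed to each compound for 48 hours at five concentrations; endpoints were interpolated linearly between bracketing concentrations, or set to the highest concentration if not reached. The concentration for 50% growth inhibition is given as GI50.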 Calls of active or inactive are those of the source. Rule as the data show it: active = GI50 up to about 1.1 µM and inactive = higher.

Tests used:
Experiment in all cases: NCI tumour cell line growth inhibition, 48 h
UO-31 = tested on: UO-31
OVCAR-5 = tested on: OVCAR-5
SW-620 = tested on: SW-620
UACC-257 = tested on: UACC-257
IGROV-1 = tested on: IGROV-1
KM12 = tested on: KM12
LOX IMVI = tested on: LOX IMVI
SK-MEL-28 = tested on: SK-MEL-28
LXFL 529 = tested on: LXFL 529
U-251 = tested on: U-251
SF-295 = tested on: SF-295
RXF 393 = tested on: RXF 393
EKVX = tested on: EKVX
SR = tested on: SR
A498 = tested on: A498
SNB-75 = tested on: SNB-75
NCI-H226 = tested on: NCI-H226
Hs-578T = tested on: Hs-578T
MDA-MB-435 = tested on: MDA-MB-435
NCI/ADR-RES = tested on: NCI/ADR-RES

Measured: GI50

N#Cc1cccc(N2C(=O)c3c(c(-c4ccccc4)c(-c4ccc(Sc5ccc(-c6c(-c7ccccc7)c7c(c(-c8ccccc8)c6-c6ccccc6)C(=O)N(c6cccc(C#N)c6)C7=O)cc5)cc4)c(-c4ccccc4)c3-c3ccccc3)C2=O)c1
inactive: UO-31 91.8 µM | OVCAR-5 > 100 µM | SW-620 > 100 µM | UACC-257 > 100 µM | IGROV-1 28.8 µM | KM12 > 100 µM | LOX IMVI 78.2 µM | SK-MEL-28 > 100 µM | LXFL 529 37.7 µM | U-251 21.2 µM | SF-295 > 100 µM | RXF 393 16.9 µM | EKVX 35.8 µM

NC1=NC(Cn2nc(-c3ccccc3)c3ccccc3c2=O)=NNC(=O)N1
inactive: UO-31 > 100 µM | SR > 100 µM | OVCAR-5 > 100 µM | SW-620 > 100 µM | UACC-257 > 100 µM | IGROV-1 > 100 µM | A498 > 100 µM | KM12 > 100 µM | SK-MEL-28 > 100 µM | LXFL 529 > 100 µM | U-251 > 100 µM | SNB-75 > 100 µM | SF-295 > 100 µM | NCI-H226 > 100 µM

c1csc(C[N+]23CN4CN(CN(C4)C2)C3)c1
inactive: UO-31 > 100 µM | SR 15.3 µM | OVCAR-5 26.9 µM | SW-620 15.7 µM | UACC-257 > 100 µM | IGROV-1 29.9 µM | KM12 > 100 µM | SK-MEL-28 > 100 µM | LXFL 529 20.3 µM | U-251 22.3 µM | SNB-75 > 100 µM | SF-295 > 100 µM | NCI-H226 > 100 µM

COCC12CC(CC1=O)C1C2ON2c3ccccc3C(=O)C12c1ccccc1 (configuration not stated)
inactive: UO-31 > 100 µM | SR 88.1 µM | SW-620 > 100 µM | UACC-257 52 µM | IGROV-1 > 100 µM | A498 > 100 µM | SK-MEL-28 > 100 µM | LXFL 529 > 100 µM | U-251 > 100 µM | SNB-75 > 100 µM | SF-295 > 100 µM | NCI-H226 > 100 µM | RXF 393 33.3 µM | EKVX > 100 µM

COCCNC(=O)C1C(=O)N(CCOC)C(=O)/C1=N/N (configuration not stated)
inactive: UO-31 > 100 µM | SR > 100 µM | SW-620 > 100 µM | UACC-257 > 100 µM | IGROV-1 > 100 µM | KM12 > 100 µM | LOX IMVI > 100 µM | SK-MEL-28 > 100 µM | LXFL 529 > 100 µM | U-251 > 100 µM | SNB-75 > 100 µM | SF-295 > 100 µM | NCI-H226 > 100 µM | EKVX > 100 µM

O=C1C[C@@H]2CCCC[C@@H]2C12SCCS2
inactive: UO-31 32.1 µM | OVCAR-5 > 100 µM | SW-620 > 100 µM | UACC-257 > 100 µM | IGROV-1 > 100 µM | A498 > 100 µM | KM12 > 100 µM | LOX IMVI > 100 µM | SK-MEL-28 89.3 µM | LXFL 529 > 100 µM | U-251 > 100 µM | SNB-75 61.9 µM | SF-295 > 100 µM | RXF 393 54.2 µM | EKVX > 100 µM

NC(=O)n1ncc(Cl)c(Cl)c1=O
inactive: UO-31 > 100 µM | OVCAR-5 > 100 µM | SW-620 > 100 µM | UACC-257 > 100 µM | IGROV-1 > 100 µM | A498 > 100 µM | KM12 > 100 µM | SK-MEL-28 > 100 µM | LXFL 529 > 100 µM | U-251 > 100 µM | SNB-75 > 100 µM | SF-295 > 100 µM | NCI-H226 > 100 µM | EKVX > 100 µM

CC(C)=CCC/C(=C/CC/C(C)=C/CCc1ccoc1)C(=O)O
inactive: UO-31 > 100 µM | OVCAR-5 26.5 µM | SW-620 > 100 µM | UACC-257 > 100 µM | A498 > 100 µM | KM12 > 100 µM | LOX IMVI > 100 µM | SK-MEL-28 > 100 µM | LXFL 529 > 100 µM | U-251 > 100 µM | SNB-75 > 100 µM | SF-295 > 100 µM | NCI-H226 73.5 µM | RXF 393 > 100 µM | EKVX > 100 µM

COc1cccc2c1C(=O)C1(O)CCCCC21 (configuration not stated)
inactive: UO-31 > 100 µM | OVCAR-5 > 100 µM | SW-620 > 100 µM | UACC-257 > 100 µM | IGROV-1 > 100 µM | A498 > 100 µM | KM12 > 100 µM | LOX IMVI > 100 µM | SK-MEL-28 > 100 µM | LXFL 529 > 100 µM | U-251 > 100 µM | SNB-75 > 100 µM | SF-295 > 100 µM | NCI-H226 > 100 µM | RXF 393 > 100 µM

CC(C)c1ccc2c(c1)CCC1C(C)(C)[C@@H](O)CC[C@]21C (some centres not stated)
inactive: UO-31 69.5 µM | SR 16.5 µM | OVCAR-5 18.8 µM | IGROV-1 > 100 µM | KM12 22.3 µM | LOX IMVI 15.1 µM | SK-MEL-28 44.5 µM | LXFL 529 47.3 µM | U-251 22.4 µM | SNB-75 19.6 µM | SF-295 18.3 µM | NCI-H226 18.7 µM | RXF 393 21.1 µM

COC1C2C[C@@H](O)CCC2C(C(=O)OCCl)C[C@H]1O (some centres not stated)
inactive: UO-31 > 100 µM | SR > 100 µM | SW-620 > 100 µM | UACC-257 > 100 µM | IGROV-1 > 100 µM | A498 > 100 µM | KM12 > 100 µM | SK-MEL-28 > 100 µM | LXFL 529 > 100 µM | U-251 > 100 µM | SNB-75 > 100 µM | NCI-H226 > 100 µM | RXF 393 > 100 µM

CCOC(=O)N1CCC(=O)C[C@@H]1C/C=C/P1(=O)O[C@H](c2ccccc2)C(C)N1C(C)C (some centres not stated)
inactive: UO-31 > 100 µM | SR > 100 µM | OVCAR-5 > 100 µM | SW-620 > 100 µM | UACC-257 > 100 µM | IGROV-1 > 100 µM | KM12 > 100 µM | SK-MEL-28 > 100 µM | LXFL 529 > 100 µM | U-251 > 100 µM | SNB-75 > 100 µM | SF-295 > 100 µM | NCI-H226 > 100 µM | RXF 393 > 100 µM | EKVX > 100 µM

CC(Cc1ccc(O)c(O)c1)C(C)Cc1ccc(O)c(O)c1 (configuration not stated) [NORDIHYDROGUAIARETIC ACID]
inactive: UO-31 9.55 µM | SR 9.79 µM | Hs-578T 16.9 µM | OVCAR-5 21.2 µM | MDA-MB-435 13.5 µM | SW-620 18.9 µM | NCI/ADR-RES 22.8 µM | UACC-257 18.2 µM | IGROV-1 16.9 µM | A498 37 µM | KM12 17.1 µM | LOX IMVI 17.4 µM | SK-MEL-28 16.2 µM | U-251 18.7 µM | SNB-75 19.8 µM | SF-295 22.1 µM | NCI-H226 22.5 µM | RXF 393 13.6 µM | EKVX 23.4 µM
